Here are results for 1 compound from patent publication US20100190711A1, “BIG GASTRIN I AS A THERAPEUTIC AGENT” (priority 2007, published 2010).

Broadly, the % inhibition is the change of the read-out against control, counted positive when it falls. Read a low % inhibition as little suppression.

The subject of this assay is drug-resistant Mycobacterium tuberculosis. The following applies: Mycobacterium tuberculosis resistant to PAS, streptomycin and INH; peptide 10 micrograms per ml; seven days.

Where a SMILES comes first, the peptide text is derived from it. [ ]: non-standard residue; d: D form. pGlu = O=C1CC[C@@H](C(=O)O)N1

As for `CSCC[C@H](NC(=O)[C@H](Cc1c[nH]c2ccccc12)NC(=O)CNC(=O)[C@H](Cc1ccc(O)cc1)NC(=O)[C@H](C)NC(=O)[C@H](CCC(=O)O)NC(=O)[C@H](CCC(=O)O)NC(=O)[C@H](CCC(=O)O)NC(=O)[C@H](CCC(=O)O)NC(=O)[C@H](CCC(=O)O)NC(=O)[C@H](CC(C)C)NC(=O)[C@H](Cc1c[nH]c2ccccc12)NC(=O)[C@@H]1CCCN1C(=O)CNC(=O)[C@H](CCC(N)=O)NC(=O)[C@H](CCCCN)NC(=O)[C@H](CCCCN)NC(=O)[C@H](CO)NC(=O)[C@@H]1CCCN1C(=O)[C@H](CC(=O)O)NC(=O)[C@H](C)NC(=O)[C@@H](NC(=O)[C@H](CC(C)C)NC(=O)[C@H](Cc1c[nH]cn1)NC(=O)[C@@H]1CCCN1C(=O)[C@@H]1CCCN1C(=O)CNC(=O)[C@H](CCC(N)=O)NC(=O)[C@@H]1CCCN1C(=O)CNC(=O)[C@H](CC(C)C)NC(=O)[C@@H]1CCC(=O)N1)C(C)C)C(=O)N[C@@H](CC(=O)O)C(=O)N[C@@H](Cc1ccccc1)C(N)=O` [Big Gastrin I] ([pGlu]LGPQGPPHLVADPSKKQGPWLEEEEEAYGWMDF-NH2), the “% inhibition” value was determined as 100.0%.
